Like-named read-outs stand apart in the source and are kept apart here.
Columns and labels:
[1] = Stability of the selected isoflavones in transport buffer (PBS+); assay type: physicochemical; conditions: three hours of incubation
Experimental: The transport buffer (PBS^+) used in the Caco-2 monolayer model was prepared as previously described. […]. For stability tests at 37°C, samples were taken at 0, 15, 40, 75, 120 and 180 minutes. At each time interval, 300 μl of isoflavone solution was taken and then acidified with 50 μl of 0.425% phosphoric acid. All experiments were conducted in triplicates. The amount of selected isoflavones remained in PBS^+ was determined with high-performance liquid chromatography (HPLC).

[2] = Bidirectional transport in the Caco-2 monolayer model; assay type: in vitro ADME, human; conditions: human
Experimental: (§1) The Caco-2 cells were cultured and seeded in the Transwell® inserts (24 mm, 0.4 μm pore size, 4.71 cm^2, polycarbonate filter) according to our previous study. Cells used for the current study were from passage 35-40. The transport experiments were carried out at 23-25 days after seeding. Upon removal of culture medium, the Transwells® were pre-equilibrated with PBS^+ at 37°C for 15 minutes. […] All Caco-2 transport studies were performed at least in triplicates. Procedure was similar to the A→B transport studies except for the donor side and the receiver side was reversed. […] Samples were taken from the receiver (apical) side at the same time points and at the end of the experiment from the donor (basolateral) side as mentioned for the A→B studies. The studies were also performed at least in triplicates. Samples obtained in the Caco-2 transport studies were acidified with 0.425% phosphoric acid at a sample to acid ratio of 150:25 (v/v). […] Waters 2695 separation modules and Waters 996 photodiode array detector were used in the HPLC analyses of the Caco-2 samples. A reversed-phase column (100 × 4.6 mm 5μ Apex ODS Symm, Jones Chromatography, USA) equipped with a guard column (7.5 × 4.6 mm 5μ Spherisorb® ODS-2 C18, Waters, USA]) was used for the analyses of all three isoflavones. In order to shorten sample-running time, three separated HPLC methods were used for each isoflavone. The apparent permeability coefficient, Papp (cm/s), was calculated as follows. Papp=dC∕dT×V/(A×Co) where dC/dT is the initial slope of the plot of cumulative isoflavone concentrations versus time; V is the volume of receiver chamber (ml); A is the apparent surface area of the monolayer; Co is the initial concentration in donor site (μmol/ml). In addition to Papp, the percentage of recovery was calculated for each transport study to determine the extent of absence of isoflavone, which may be due to cell uptake or metabolism of the selected isoflavones after passing through the Caco-2 cells. It was calculated as follows. Recovery%=Final amount (in μmole) of isoflavone in donor and receptor side∕Initial amount (in μmole) of isoflavone in donor side

[3] = tested on: Caco-2 monolayer; test: as above; assay type: in vitro ADME, human; conditions: for time at which detectable in receiver chambers: after being loaded, both directions
Experimental: as §1

[4] = Partition coefficients (octanol/aqueous); assay type: physicochemical; conditions: read-out: partition coefficient D (LogD, octanol/aqueous)
Experimental: The aqueous solution (10 ml) containing individual isoflavones was mixed with octanol (3 ml). The mixtures were equilibrated in tube rotator for 24 hours followed by sampling from the aqueous layers and determining concentrations of the isoflavones by HPLC. The test was performed in triplicates for each isoflavone. The partition coefficients (D) at both pH7.4 and pH 6.8 were obtained through the following equation:
LogD=log(isoflavoneoctanolphase∕isoflavoneaqueousphase)

[5] = Hydrolysis on incubation with rat intestinal microvilli preparations; assay type: in vitro ADME; conditions: 50 μM, 37°C, two hours, protein 0.43 mg/ml
Experimental: Male Sprague-Dawley rats, supplied by and bred at the Laboratory Animal Service Center at The Chinese University of Hong Kong, were housed in an air-conditioned room under a 12/12-hour light/dark cycle. The experiment was conducted after being approved by the Animal Ethics Committee of The Chinese University of Hong Kong.
Samples from the in vitro incubation studies were centrifuged at 16,000 × g (Eppendorf, Germany) for five minutes; 50 μl of the supernatant of the samples were obtained and injected into the HPLC for analysis. In order to monitor daidzin, puerarin and daidzein in a single run for the samples from the hydrolysis study, we modified the above HPLC method for simultaneous detection of the three compounds. The analytes were separated with an HPLC column (BDS reversed phase column, 25 cm × 4.6 mm id; 5 μm particle size, Thermo Hypersil, UK) and eluted by the linear gradient elution at a flow rate of 1 ml/min. The gradient started with 95% of water with 0.01% aqueous acetic acid (A) and 5% of ACN containing 0.01% acetic acid (B), changed linearly to 83% A and 17% B in 30 minutes; 70% A and 30% B in 30-40 minutes; 50% A and 50% B in 40-45 minutes; and then back to the initial composition in 15 minutes followed by ten minutes after equilibrium.

[6] = tested on: MRP; test: Basolateral-to-apical transport in Caco-2 monolayer in the presence of MK571 (MRP inhibitor); assay type: in vitro ADME, human; conditions: for lowering of B→A cumulative concentration versus without MK571: MK571 50 μM
Experimental: Procedure was similar to the A→B transport studies except for the donor side and the receiver side was reversed. Loading solution (2.6 ml) was added into the basolateral side and 1.5 ml of the blank PBS^+ was added to the apical side. Samples were taken from the receiver (apical) side at the same time points and at the end of the experiment from the donor (basolateral) side as mentioned for the A→B studies. The studies were also performed at least in triplicates.
The study was performed only for isoflavones that had shown a favorable B→A transport in the bi-directional transport studies. […] To investigate the influence of MRP on the efflux transport of the selected isoflavones, we preloaded 1.5 ml of MK571 (50 μM) at apical side and 2.6 ml of MK571 (50 μM) at the basolateral side respectively. The B→A transport experiments of the selected isoflavones in the presence of MK571 (50 μM) in the both apical and basolateral chambers were then performed following the method described above. The studies were performed in triplicates.

[7] = both directional transport studies
[8] = Caco-2, pH 6.8, Caco-2, pH6.8, mean ± SD (n = 3), read-out: Recovery Apical to basolateral
[9] = Caco-2, pH 6.8, Caco-2, pH6.8, mean ± SD (n = 3), read-out: Recovery Basolateral to apical

Row | SMILES | isoflavone remained in PBS+ ([1]; pH6.8, 37°C) | isoflavone remained in PBS+ ([1]; pH7.4, 37°C) | recovery ([2]; Caco-2, pH 6.8, Recovery Apical to basolateral) | recovery ([2]; Caco-2, pH 6.8, Recovery Basolateral to apical) | time at which detectable in receiver chambers [3] | percentage of recoveries [3, 7] | logD at 24 h ([4]; pH 6.8, 24 hours equilibration) | logD at 24 h ([4]; pH 7.4, pH7.4, 24 hours equilibration) | hydrolysis by rat intestinal microvilli preparations [5] | time from which detectable in the receiver chamber ([6]; B→A, in the presence of MK571 50 μM) | lowering of B→A cumulative concentration versus without MK571 ([6]; at 180 minutes) | cumulative concentration in the receiver chamber (B→A) ([6]; at 180 minutes, MK571 50 μM in both chambers) | lowering of B→A cumulative concentration versus without MK571 ([6]; at 180 minutes, listed as daidzin) | recovery at 180 min ([6]; human, Caco-2, B→A transport in the absence and presence of MK571, read-out: percentages of recovery) | recovery [2, 8] | recovery [2, 9] | Papp B→A ([2]; pH 6.8, Caco-2, pH6.8, mean ± SD (n = 3), read-out: Papp Basolateral to apical) | cumulative concentration in the receiver side ([3]; at 180 minutes after apical loading) | cumulative concentration in the receiver side ([3]; at 180 minutes after basal loading) | fraction permeable through the Caco-2 monolayer [3, 7]
1 | O=c1c(-c2ccc(O)cc2)coc2cc(O)ccc12 [Daidzein, daidzein] | 95.50 ± 0.84% | 97.73 ± 3.43% | 83.1 ± 5.74% | 84 ± 14.1% | 15 min | about 83% |  |  |  |  |  |  |  |  |  |  |  |  |  | 
2 | O=c1c(-c2ccc(O)cc2)coc2cc(O[C@@H]3O[C@H](CO)[C@@H](O)[C@H](O)[C@H]3O)ccc12 [Daidzin, daidzin] | 108.66 ± 2.16% | 108.11 ± 5.21% |  |  |  |  | 0.34 ± 0.03 | 0.8 ± 0.03 | completely hydrolyzed to daidzein | 90 min | 50% | 0.41 ± 0.02 µM | about 50% | > 90% | 92.9 ± 1.77% | 99.2 ± 2.55% | 0.53 ×10⁻⁶ cm/s |  |  | 
3 | O=c1c(-c2ccc(O)cc2)coc2c([C@@H]3O[C@H](CO)[C@@H](O)[C@H](O)[C@H]3O)c(O)ccc12 [Puerarin, puerarin] | 105.00 ± 2.72% | 106.74 ± 4.20% |  |  | not being detectable until two hours |  |  |  | majority of puerarin remained unchanged |  |  |  |  |  | 88.9 ± 7.03% | 92.7 ± 8.09% |  | 0.043 ± 0.006 µM | 0.12 ± 0.02 µM | around 0.3%
